Values quoted from earlier work in patent publication US20210069174A1, “COMPOSITIONS AND METHODS FOR TREATMENT OF CYSTIC FIBROSIS” (Vertex Pharmaceuticals Incorporated, priority 2017, published 2021).

Tested on: CFTR
Details: CFTR modulator; disclosed in PCT Publication No. WO 2016/057572

Structure (SMILES): CC(C)COc1cc(F)cc(-c2ccc(C(=O)NS(=O)(=O)c3ccccc3)c(N3C[C@@H](C)CC3(C)C)n2)c1 [Compound I, N-(benzenesulfonyl)-6-(3-fluoro-5-isobutoxy-phenyl)-2-[(4S)-2,2,4-trimethylpyrrolidin-1-yl]pyridine-3-carboxamide]
- EC30: < 3 µM
